Assay results from BindingDB's records for doi:10.1016/j.bioorg.2016.01.007 (Universiti Teknologi Mara (Uitm), Puncak Alam Campus, 2016).

These molecules were tested against T1, Beta-glucuronidase (Bos taurus, UniProt A3KMY8) (assay: β-Glucuronidase Inhibition Assay).
T1 sequence (A3KMY8 whole entry): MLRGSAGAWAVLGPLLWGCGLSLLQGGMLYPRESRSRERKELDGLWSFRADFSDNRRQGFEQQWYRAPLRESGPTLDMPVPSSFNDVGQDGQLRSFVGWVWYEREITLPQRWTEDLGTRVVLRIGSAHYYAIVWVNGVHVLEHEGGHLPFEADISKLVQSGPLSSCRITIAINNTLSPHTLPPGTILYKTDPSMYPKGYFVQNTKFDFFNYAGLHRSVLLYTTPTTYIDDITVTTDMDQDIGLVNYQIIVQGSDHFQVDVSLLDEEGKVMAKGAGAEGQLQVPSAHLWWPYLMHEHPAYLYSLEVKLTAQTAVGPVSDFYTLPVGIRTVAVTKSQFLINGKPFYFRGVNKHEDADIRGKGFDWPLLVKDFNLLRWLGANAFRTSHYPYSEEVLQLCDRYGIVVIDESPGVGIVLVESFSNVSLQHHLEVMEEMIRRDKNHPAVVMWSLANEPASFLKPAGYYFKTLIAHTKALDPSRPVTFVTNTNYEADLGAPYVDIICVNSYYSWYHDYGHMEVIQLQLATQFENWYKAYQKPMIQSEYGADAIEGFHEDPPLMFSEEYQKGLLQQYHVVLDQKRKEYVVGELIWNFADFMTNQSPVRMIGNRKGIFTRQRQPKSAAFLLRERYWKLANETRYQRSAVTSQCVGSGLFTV
Experimental: The total reaction volume was set at 250 µL. The reaction mixture comprises of 185 µL of 0.1 M acetate buffer, 5 µL of test compound solution, 10 µL of enzyme solution and incubated at 37 °C for 30 min. […] All assays were carried out in triplicate.

Structure (SMILES) | IC50
COc1ccc(O)c(-c2nc3ncc(Cl)cc3[nH]2)c1 [2-(6-Chloro-1H-imidazo[4,5-b]pyridin-2-yl)-4-methoxyphenol (13)] | 129 µM
Oc1cccc(-c2nc3ncc(Cl)cc3[nH]2)c1 [3-(6-Chloro-1H-imidazo[4,5-b]pyridin-2-yl)phenol (8)] | 68.1 µM
COc1ccc(-c2nc3ncc(Cl)cc3[nH]2)c(O)c1 [2-(6-Chloro-1H-imidazo[4,5-b]pyridin-2-yl)-5-methoxyphenol (19)] | 114 µM
Oc1ccc(-c2nc3ncc(Cl)cc3[nH]2)c(O)c1 [4-(6-Chloro-1H-imidazo[4,5-b]pyridin-2-yl)benzene-1,3-diol (2)] | 49.6 µM
Oc1ccc(-c2nc3ncc(Cl)cc3[nH]2)cc1 [4-(6-Chloro-1H-imidazo[4,5-b]pyridin-2-yl)phenol (26)] | 52.6 µM
